Experimental findings from ChEMBL document CHEMBL2034870, “Activity landscape modeling of PPAR ligands with dual-activity difference maps” (Bioorg Med Chem, 2012) are described below.

SMILES strings stand for the structures.

Experiment [1] deals with T1, Peroxisome proliferator-activated receptor delta (Homo sapiens, UniProt Q03181).
T1 sequence (Q03181 whole entry): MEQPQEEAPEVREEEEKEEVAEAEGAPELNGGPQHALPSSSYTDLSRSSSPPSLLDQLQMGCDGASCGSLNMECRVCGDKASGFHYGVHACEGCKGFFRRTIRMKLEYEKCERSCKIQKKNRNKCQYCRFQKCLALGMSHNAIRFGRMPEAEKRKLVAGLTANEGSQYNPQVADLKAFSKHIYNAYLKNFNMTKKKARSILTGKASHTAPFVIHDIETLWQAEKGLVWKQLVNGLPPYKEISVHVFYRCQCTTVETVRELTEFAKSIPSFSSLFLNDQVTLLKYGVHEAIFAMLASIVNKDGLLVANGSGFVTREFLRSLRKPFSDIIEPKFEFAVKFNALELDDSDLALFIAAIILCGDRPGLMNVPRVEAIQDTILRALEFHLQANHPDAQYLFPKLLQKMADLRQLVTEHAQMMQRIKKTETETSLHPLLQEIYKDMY
The class given is functional.

Experiment [2] concerns the target T2, Peroxisome proliferator-activated receptor alpha (Homo sapiens, UniProt Q07869).
T2 sequence (Q07869 whole entry): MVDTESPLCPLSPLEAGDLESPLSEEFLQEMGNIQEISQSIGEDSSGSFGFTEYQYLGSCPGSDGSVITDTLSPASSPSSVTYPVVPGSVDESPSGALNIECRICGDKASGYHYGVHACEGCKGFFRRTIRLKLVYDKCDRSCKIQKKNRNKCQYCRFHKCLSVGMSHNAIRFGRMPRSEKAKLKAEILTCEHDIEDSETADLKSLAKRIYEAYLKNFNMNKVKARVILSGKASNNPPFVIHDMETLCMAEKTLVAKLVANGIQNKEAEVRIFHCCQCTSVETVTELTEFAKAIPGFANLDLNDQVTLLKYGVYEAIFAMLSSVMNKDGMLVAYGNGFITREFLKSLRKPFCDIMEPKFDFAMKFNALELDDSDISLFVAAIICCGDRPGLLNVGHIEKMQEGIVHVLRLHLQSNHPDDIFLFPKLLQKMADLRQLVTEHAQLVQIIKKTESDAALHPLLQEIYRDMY
The class given is functional.

Regarding `CCCc1cc(C(=O)c2ccccc2)ccc1OCCCOc1cccc([C@@H]2SC(=O)NC2=O)c1`, in experiment [1] (read-out: pIC50 (converted)), the IC50 was 170 nM.

Turning to `CC(C)Cc1cc(Oc2ccccc2)ccc1OCCCOc1ccc([C@@H]2SC(=O)NC2=O)cc1`, the figures for the IC50 in experiment [2] (read-out: IC50) and in experiment [1] (read-out: IC50) were 340 nM and 160 nM, respectively.

As to `CCCO[C@H](Cc1ccc2c(ccn2Cc2nc(-c3ccc(C(F)(F)F)cc3)oc2C)c1)C(=O)O`, the IC50 in experiment [2] (read-out: pIC50 (converted)) was 40 nM. `O=C(O)[C@@H]1CCc2ccc(OCCCOc3ccc(OCC(F)(F)F)cc3Cl)cc2O1`: the IC50 came to 810 nM in experiment [2] (read-out: IC50) and 6900 nM in experiment [1] (read-out: IC50).

On to `CCCC[C@@](Cc1ccc(OCCc2nc(-c3ccccc3)oc2C)cc1)(Oc1ccccc1)C(=O)O`, for which the IC50 in experiment [2] (read-out: IC50) stood at 1850 nM; in experiment [1] (read-out: IC50) it was 7230 nM.

`CCO[C@H](Cc1ccc2c(c1)cc(C)n2Cc1nc(-c2ccc(C(F)(F)F)cc2)oc1C)C(=O)O`: the IC50 in experiment [2] (read-out: pIC50 (converted)) is 352 nM; in experiment [1] (read-out: pIC50 (converted)) it was 372 nM. Regarding `CCCc1cc(-c2noc3ccccc23)ccc1OCCCOc1cccc([C@@H]2SC(=O)NC2=O)c1`, the IC50 in experiment [1] (read-out: pIC50 (converted)) is 140 nM.

Regarding `CCCc1cc(OC2CCCC2)ccc1OCCCOc1cccc([C@@H]2SC(=O)NC2=O)c1`, in experiment [1] (read-out: pIC50 (converted)), the IC50 is 920 nM. Consider `Cc1oc(-c2ccccc2)nc1CCOc1ccc(C[C@H](Oc2ccccc2)C(=O)O)cc1`, for which the IC50 in experiment [2] (read-out: IC50) came out at 1110 nM; in experiment [1] (read-out: IC50) it was 7040 nM. As to `CCCn1c(CCCc2ccc(OC(C)(C)C(=O)O)cc2)nn([C@H](C)c2ccccc2)c1=O`, the IC50 in experiment [2] (read-out: pIC50 (converted)) was 220 nM; in experiment [1] (read-out: pIC50 (converted)) it was 1500 nM. On the same counts, the results for `CC[C@@](Cc1ccc(OCCc2nc(-c3ccccc3)oc2C)cc1)(Oc1ccccc1)C(=O)O` are 473 nM and 5070 nM.

In the case of `CCCc1cc(C2CCCC2)ccc1OCCCOc1cccc([C@H]2OC(=O)NC2=O)c1`, the IC50 in experiment [1] (read-out: pIC50 (converted)) was 3850 nM. On the same count and under the same terms, next, `CCCc1cc(-c2ccccc2)ccc1OCCCOc1cccc([C@@H]2OC(=O)NC2=O)c1`: 1510 nM.

Regarding `Cc1oc(-c2ccc(C(F)(F)F)cc2)nc1Cn1ccc2cc(C[C@@H](OC(C)C)C(=O)O)ccc21`, the results for the IC50 in experiment [2] (read-out: pIC50 (converted)) and in experiment [1] (read-out: pIC50 (converted)) were 61 nM and 891 nM, respectively.

As to `O=C1NC(=O)[C@H](c2cccc(OCCCOc3ccc(Oc4ccccc4)cc3)c2)S1`, in experiment [1] (read-out: pIC50 (converted)), the IC50 is 190 nM. In the case of `CCO[C@@H](Cc1cccc2c1ccn2Cc1nc(-c2ccccc2)oc1C)C(=O)O`, the results for the IC50 in experiment [2] (read-out: pIC50 (converted)) and in experiment [1] (read-out: pIC50 (converted)) were 125 nM and 3500 nM, respectively. Turning to `CCCc1cc(Oc2ccc(O)cc2)ccc1OCCCOc1cccc([C@@H]2SC(=O)NC2=O)c1`, in experiment [1] (read-out: IC50), the IC50 was 3800 nM. Regarding `CCCc1c(OCCCSc2ccc(CC(=O)O)cc2Cl)ccc(/C(CC)=N\O)c1O`, the IC50 in experiment [2] (read-out: pIC50 (converted)) is 100 nM; in experiment [1] (read-out: pIC50 (converted)), 10 nM.
